Measured values published in patent publication US12077555B2, “STAT degraders and uses thereof” (Kymera Therapeutics, Inc., priority 2019, dated 2024).

Assays:
Assay type in all cases: cell-based
SU-DHL-1 cells [1] = test: Wash-out study in SU-DHL-1 cells; settings: 1 uM compound for 24 and 48 hr, then wash-out; FIGS. 10 and 18
Method: I-103 and I-174 were tested in the wash-out protocol.
• Seed cell suspension in T75 flasks and treat with 0.1% DMSO and 1 uM compound for 24 and 48 hr. Day 0 • Collect cell suspension from the flasks in conical tubes after 24 and 48 hr, spin down at 1,000 rpm for 5 min. • Remove supernatant. Wash with PBS, spin down at 1,000 rpm for 5 min, repeat PBS wash one more time. • Seed the cells at 2,000 cells per well in 384-well plates for growth inhibition measurement via CellTiterGlo (CTG) and 10,000 cells per well in 96-well plates for STAT3 levels via MSD. • Measure T0 for CTG and collect pellets to measure levels of STAT3 by MSD Day 1-4 • Measure CTG every day for 4 days post wash-out. • Collect pellets and measure levels of STAT3 by MSD every day for 4 days post wash-out. Growth inhibition was normalized to T0 and graphed as % control.

SUP-M2 cells = test: CellTiter-Glo cell viability, SUP-M2
SOCS3 = test: STAT3 RT-qPCR assay, SOCS3 mRNA; settings: SU-DHL-1 cells
Method: SU-DHL-1 cells were treated with compounds for a designed time. 0.3-0.6 mL lysis buffer with 2-mercaptoethanol was added to the collected cell pellet or monolayer cells. The cells were vortexed until the cell was dispersed and the cells appear lysed. One volume of 70% ethanol was added to each volume of cell homogenate and vortex. 700 μL of the sample was transferred to the spin cartridge and centrifuged at 12000 g for 15s at RT. The flow-through was discarded and the process repeated until the entire samples had been processed. 700 ul wash buffer I was added to the spin cartridge and centrifuged at 12000 g for 15s at RT and the flow-through was discarded. 500 μL wash buffer II with ethanol was added to the spin cartridge and centrifuged at 12000 g for 15s at RT and the flow-through was discarded. The process was then repeated. The spin cartridge was centrifuged at 12000 g for 2 min to dry the membrane with bound RNA. 30-100 μL RNase-free water was added to the center of the spin cartridge and incubated for 1 min at RT. […] The concentration of the RNA was quantitated using Nano-Drop. cDNA was formed from the RNA by reverse transcription and qPCR of the cDNA with primer of the gene of interest and housekeeping gene was preformed using the volumes below: […]

SU-DHL-1 cells [2] = test: wash-out study in SU-DHL-1 cells; settings: after 4 days
Method: FIG. 10 depicts wash-out study results with I-103 at 24 hours (A) and 48 hours (B).

SU-DHL-1 cells [3] = test: Caspase 3/7-Glo activity assay; settings: SU-DHL-1, FIG. 17
Method: Determination of apoptosis was determined using a Caspase 3/7-Glo assay.
• 1—Prepare the Caspase-Glo® 3/7 Reagent (Promega cat #G8090) • Equilibrate the Caspase-Glo® 3/7 Buffer and lyophilized Caspase-Glo® 3/7 Substrate to room temperature before use. • Transfer the contents of the Caspase-Glo® 3/7 Buffer bottle into the amber bottle containing Caspase-Glo® 3/7 Substrate. • Mix by swirling or inverting the contents until the substrate is thoroughly dissolved to form the Caspase-Glo® 3/7 Reagent • Aliquot and store at −20 • 2—If thawing the reagent, allow it to equilibrate to room temperature. Mix well. • 3—Remove white-walled 384-well plate containing treated cells from the incubator and allow plates to equilibrate to room temperature. • 4—Add Caspase-Glo® 3/7 Reagent to each well of the plate at 1:1 ratio with media. Because of the sensitivity of this assay, be careful not to touch pipet tips to the wells containing samples to avoid cross-contamination. Cover the plate with a plate sealer or lid. • 5—Gently mix contents of wells using a plate shaker at 300-500 rpm for 30 seconds. Incubate at room temperature for 30-60 minutes. Note: Temperature fluctuations will affect the luminescence reading. • 6—Measure the luminescence of each sample in a plate-reading luminometer as directed by the luminometer manufacturer.

Cn1c(=O)n(C2CCC(=O)NC2=O)c2ccc(C[C@H]3CC[C@@H](CC(=O)N4CC[C@H]5CC[C@@H](C(=O)N[C@@H](CCC(N)=O)C(=O)NC(c6ccccc6)c6ccccc6)N5C(=O)[C@@H](NC(=O)c5cc6cc(C(=O)P(=O)(O)O)ccc6[nH]5)C4)CC3)cc21 (stereo partly drawn) [Compound I-174, 2-[[(5S,8S,10aR)-8-[[(1S)-3-carbamoyl-1-(diphenylmethylcarbamoyl)propyl]carbamoyl]-6-oxo-3-[2-[(1s,4s)-4-[[1-(2,6-dioxopiperidin-3-yl)-3-methyl-2-oxo-1,3-benzodiazol-5-yl]methyl]cyclohexyl]acetyl]-octahydropyrrolo[1,2-a][1,5]diazocin-5-yl]carbamoyl]-1H-indole-5-carbonylphosphonic acid]
viability of SU-DHL-1 cells after wash-out (SU-DHL-1 cells [1]): profound effects on the viability of SU-DHL-1 cells
IC50 (SUP-M2 cells; 96 h, SUP-M2, ALCL (ALK+), Day 4, read-out: CTG, IC50 μM, Day 4): 0.086 µM
CTG (% Max inh), Day 4 (SUP-M2 cells; SUP-M2, ALCL (ALK+), Day 4): (95) %
cell proliferation (SUP-M2 cells; SUP-M2, FIG. 16): inhibit
IC50 (SOCS3; Homo sapiens, 24 hr): 0.022 µM
STAT3-dependent gene expression of SOCS3 (SOCS3; FIG. 5A, FIG. 15): downregulates
growth and cell death after wash-out (SU-DHL-1 cells [2]; 24 hours wash-out): strong growth inhibition and potential cell death
growth and cell death after wash-out (SU-DHL-1 cells [2]; 48 hours wash-out): complete growth inhibition and cell death
decrease of STAT3 necessary to induce SU-DHL-1 apoptosis and inhibit cell growth (SU-DHL-1 cells [3]): 90%
